Data set [1] in a line: Pharmacokinetic study of YCHD components and phase II metabolites in ANIT-induced cholestatic rats (UHPLC-MS/MS, sulfatase enzymolysis). It is filed as in vivo, rat. The following applies: for AUC(0-∞) / Ka: Model group (ANIT 50 mg/kg cholestatic rats); for AUC(0-∞) / Ka / AUC(0-∞) reduced by, cholestatic model rats compared with normal rats / Cmax reduced by, cholestatic model rats compared with normal rats / AUC(0-∞) increased by, cholestatic model rats compared with normal rats / Cmax increased by, cholestatic model rats compared with normal rats: single oral YCHD 12 g/kg; for Cmax / Tmax / CL/F / MRT inf / Vd/F / half-life: rat, po, 12 g/kg; for CL/F: read-out: CLz/F; for MRT inf: read-out: MRT (0-∞) (converted); for Vd/F: read-out: Vz/F; for half-life: read-out: t1/2z; for in vivo absorption and excretion processes in cholestatic rats (comparison of Ka and Ke): versus normal rats, oral YCHD 12 g/kg. On the procedure:
To explore the pharmacokinetic properties of YCHD following intragastric administration in rats, a rapid and sensitive method involving the use of UHPLC-MS/MS (Agilent 6460 series, Agilent Technologies, Santa Clara, CA, United States) was developed and validated for the simultaneous quantification of 10 active components of rat plasma. The quantification was conducted in ESI negative ionization mode, and the mass spectrometry conditions were as follows: capillary voltage, 3500 V; gas flow, 12 L/min; nebulizer, 40 psi; gas temperature, 350°C; and delta EMV (-), 400.
To each 50 μL plasma sample, 10 μL of internal standard solution (paeoniflorin, 1000 ng/mL) and 300 μL of a mixed solution of methanol and acetonitrile (v/v, 1:1; containing 1% formic acid) were added. Subsequently, the solution was vortex mixed for 5 min. After centrifugation at 15,000 rpm for 5 min, the supernatant was transferred completely into a tube, before being evaporated under N2 at 40°C. The residue was then dissolved in 50 μL of 50% methanol–water (v/v, 1:1) through vortexing for 5 min, after centrifugation at 15,000 rpm for 10 min. Finally, 5 μL of the supernatant sample was injected into the UHPLC-MS/MS system for analysis.
The rats were randomly divided into two groups (n = 5 for each group). […] The blood samples were centrifuged at 4000 rpm for 10 min, and the supernatant plasma was harvested. Plasma samples (50 μL) were immediately processed as outlined in Section “Chromatographic and Mass Spectrometry Conditions.”
Additional plasma samples (50 μL) were enzymatically hydrolyzed with 50 μL of enzyme solution (65.86 mg of sulfatase, dissolved in 2 mL of sodium acetate buffer, pH 5.0) for phase II metabolite quantification, in accordance with our previous study ([Ding et al., 2012]). After being vortex mixed for 5 min, the mixture was incubated at 37°C for 30 min and then returned to room temperature. Subsequently, the samples were processed as outlined in Section “Chromatographic and Mass Spectrometry Conditions” for UHPLC-MS/MS analysis. During routine analysis, each analytical run included six blank plasma samples, a set of calibration samples, a set of QC samples, and unknowns.
All data are presented as mean ± SD. A one-way analysis of variance was used to compare data between two groups using SPSS (Version 21.0). The differences were considered to be statistically significant when p < 0.05 and highly significant when p < 0.01 or p < 0.001. Pharmacokinetic data analysis was performed using DAS 2.1.1 software (Mathematical Pharmacology Professional Committee of China, Shanghai, China).
The specific contents of the phase II metabolites of these components were detected indirectly by evaluating the content difference of their prototypes in samples after enzymolysis and before enzymolysis
CG = Ca −[MG × (CGG/MGG + CGe/MGe)]
Ca, CGG, and CGe represent the concentration of genipin, genipin-1-β-D-gentiobioside, and geniposide after enzymolysis of sulfatase, respectively. MG, MGG-, and MGe represent the mass of genipin, genipin-1-β-D-gentiobioside, and geniposide, respectively.

For data set [2], the system named is ANIT-induced cholestatic liver injury. As to the kind of experiment: Liver histopathological examination (H&E) in ANIT-induced cholestatic rats. It is filed as in vivo, rat. The following applies: UDCA + ANIT 50 mg/kg. The method, then:
(§1) Male Sprague Dawley rats (230 ± 20 g, 6–8 weeks of age) were purchased from B&K Laboratory Animal, Corp. Ltd. (Shanghai, China) and fed in the Laboratory Animal Center of Shanghai University of Traditional Chinese Medicine. All rats were allowed to acclimatize for 3 days before experimentation. The rats were randomly divided into six groups (n = 5 for each group). […] Moreover, groups 1 and 2 were intragastrically treated with physiological saline (0.9%) at a dose of 1 mL/100 g. […] At the end of the experiment, all rats were euthanized by CO2 inhalation. The serum samples were stored at -70°C until analysis, and liver samples were isolated and stored at -70°C for further analysis, whereas the central part of the right large lobe of the liver was used for histological examination.

The test system of a further data set is OCT1. As to the kind of experiment: Expression level of OCT1 in rat liver by UHPLC-MS/MS. It is filed as in vivo. The method, then: as §1
Biotransformation of xenobiotics and endogenous compounds is a crucial step in the absorption and elimination of potentially harmful substances from the human body, a process that could be affected by the levels of pharmacokinetic enzymes and transporter proteins. […]
Total membrane protein was isolated (in triplicate) from liver tissue according to the Native Membrane Protein Extraction Kit protocol. Subsequently, protein concentrations were determined by applying the BCA Protein Assay Kit. […]

Another data set deals with OATP1A4. Nature of the data set: Expression level of OATP1A4 in rat liver by UHPLC-MS/MS. In kind it is in vivo.
Setting [3] is: UDCA group, ANIT-treated rats, mean ± S.D.

Like-named read-outs stand apart in the source and are kept apart here.

The term Cmax denotes the peak of the concentration-time curve. The Tmax is the time at which the peak concentration occurs.

Procedure for OATP1A4: Male Sprague Dawley rats (230 ± 20 g, 6–8 weeks of age) were purchased from B&K Laboratory Animal, Corp. Ltd. (Shanghai, China) and fed in the Laboratory Animal Center of Shanghai University of Traditional Chinese Medicine. All rats were allowed to acclimatize for 3 days before experimentation. The rats were randomly divided into six groups (n = 5 for each group). […] The rats in groups 4, 5, and 6 were intragastrically administered YCHD every 24 h for 10 consecutive days. The rats in group 3 were orally administered UDCA at a dose of 100 mg/kg every 24 h for 10 consecutive days, which is well-documented to treat induced liver injury and cholestasis ([Chen et al., 2016]; [Cao et al., 2017]). Moreover, groups 1 and 2 were intragastrically treated with physiological saline (0.9%) at a dose of 1 mL/100 g. […] At the end of the experiment, all rats were euthanized by CO2 inhalation. The serum samples were stored at -70°C until analysis, and liver samples were isolated and stored at -70°C for further analysis, whereas the central part of the right large lobe of the liver was used for histological examination. […]

As to `CC(=O)c1ccc(O)cc1` [4-hydroxyacetophenone, 4-Hydroxyacetophenone], in data set [1] (plasma), the “AUC(0-∞)” value came out at 113028.5 ± 56412.0 µg·min/L, the Ka was found to be 202.7 ± 235.9 min⁻¹, the Cmax came to 676 ± 85 ng/mL and the Tmax is 0.25 h. Besides, in data set [1] (plasma), the CL/F worked out at 215 ± 37 mL/min/kg, the MRT inf was 18.6 h, the Vd/F is 429 ± 287 L/kg and the half-life worked out at 25.9 ± 21 h. In addition, in data set [1], the “AUC(0-∞) reduced by, cholestatic model rats compared with normal rats” value is reported as 41.2%; the “Cmax reduced by, cholestatic model rats compared with normal rats” value (“Cmax reduced by, cholestatic model rats” below) was 57.2%; the “in vivo absorption and excretion processes in cholestatic rats (comparison of Ka and Ke)” value was “inhibited”.
Consider `O=C(O)C1=CO[C@@H](O[C@@H]2O[C@H](CO)[C@@H](O)[C@H](O)[C@H]2O)[C@@H]2C(CO)=CC[C@H]12` [Geniposidic acid], for which, in data set [1] (plasma), the “AUC(0-∞)” value was 3007701.6 ± 1408367.9 µg·min/L, the Ka worked out at 41280.6 ± 37036.2 min⁻¹, the Cmax stood at 1690 ± 251 ng/mL and the Tmax was 4 h. In data set [1] (plasma), the MRT inf was 9.5 h. In addition, in data set [1] (Sprague Dawley, plasma), the Vd/F amounted to 4990 ± 1180 L/kg and the half-life came to 5.23 ± 1.44 h. For the same compound, in data set [1], the “AUC(0-∞) increased by, cholestatic model rats compared with normal rats” value amounted to 85.5%; the “Cmax increased by, cholestatic model rats compared with normal rats” value is recorded as 153.7%; the “in vivo absorption and excretion processes in cholestatic rats (comparison of Ka and Ke)” value was “significantly enhanced”.
In the case of `O=C(O)c1cc(O)c2c(c1)C(=O)c1cccc(O)c1C2=O` [Rhein], in data set [1] (plasma), the “AUC(0-∞)” value turned out to be 172453.1 ± 108249.8 µg·min/L, the Ka came to 478.1 ± 200.1 min⁻¹, the Cmax came to 422 ± 87.5 ng/mL and the time of peak concentration (Tmax) was 0.25 h. In data set [1] (plasma), the CL/F was found to be 221 ± 84 mL/min/kg, the MRT inf was 2.83 h, the Vd/F amounted to 41.4 ± 20.8 L/kg and the half-life came out at 2.19 ± 0.812 h. For the same compound, in data set [1], the “AUC(0-∞) reduced by, cholestatic model rats compared with normal rats” value is listed as 80.9%; the “Cmax reduced by, cholestatic model rats” value was 86.1%; the “in vivo absorption and excretion processes in cholestatic rats (comparison of Ka and Ke)” value is given as “inhibited”.
As for `COC(=O)C1=CO[C@@H](O[C@@H]2O[C@H](CO)[C@@H](O)[C@H](O)[C@H]2O)[C@@H]2C(CO)=CC[C@H]12` [Geniposide], in data set [1] (plasma), the “AUC(0-∞)” value is 956445.5 ± 420665.9 µg·min/L and the Ka stood at 1543.0 ± 592.8 min⁻¹. In data set [1] (in vivo), the Cmax turned out to be 578 ± 59.6 ng/mL, the Tmax is 0.45 h, the CL/F is 45 ± 12 mL/min/kg and the MRT inf was 7.5 h. Besides, in data set [1] (in vivo), the Vd/F turned out to be 22.4 ± 7.5 L/kg and the half-life came out at 5.64 ± 0.467 h. Besides, in data set [1], the “AUC(0-∞) increased by, cholestatic model rats compared with normal rats” value was determined as 148.9%; the “Cmax increased by, cholestatic model rats compared with normal rats” value is given as 10.2%; the “in vivo absorption and excretion processes in cholestatic rats (comparison of Ka and Ke)” value is reported as “significantly enhanced”.
For `COC(=O)C1=CO[C@@H](O[C@@H]2O[C@H](CO[C@@H]3O[C@H](CO)[C@@H](O)[C@H](O)[C@H]3O)[C@@H](O)[C@H](O)[C@H]2O)[C@@H]2C(CO)=CC[C@H]12` [genipin-1-β-D-gentiobiodide, Genipin-1-β-D-gentiobiodide], in data set [1] (plasma), the “AUC(0-∞)” value is 31749.4 ± 15408.0 µg·min/L, the Ka is 106.8 ± 25.5 min⁻¹, the Cmax was determined as 63.9 ± 10.1 ng/mL and the time to peak (Tmax) is 0.25 h. For the same compound, in data set [1] (plasma), the CL/F turned out to be 1260 ± 165 mL/min/kg and the MRT inf was 3.14 h. In data set [1] (Sprague Dawley, plasma), the Vd/F came out at 280 ± 254 L/kg and the half-life was 2.81 ± 3.01 h. In data set [1], the “AUC(0-∞) reduced by, cholestatic model rats compared with normal rats” value worked out at 17.7% and the “Cmax reduced by, cholestatic model rats” value came out at 39.5%.
On to `COC(=O)C1=COC(OC2OC(CO)C(O)C(O)C2O)C2C(CO)=CC(O)C12` (centres unmarked) [Scandoside methyl ester], for which, in data set [1] (plasma), the “AUC(0-∞)” value is 300942.4 ± 177466.0 µg·min/L and the Ka was 22.6 ± 38.8 min⁻¹. Moreover, in data set [1] (Sprague Dawley, in vivo), the Cmax is 93.8 ± 13.7 ng/mL, the Tmax was 4.4 h, the CL/F is 98 ± 16 mL/min/kg and the MRT inf was 16.7 h. For the same compound, in data set [1] (in vivo), the Vd/F was determined as 95.6 ± 26.6 L/kg and the half-life turned out to be 11.5 ± 3.28 h. In data set [1], the “Cmax reduced by, cholestatic model rats” value was found to be 26.3%; the “in vivo absorption and excretion processes in cholestatic rats (comparison of Ka and Ke)” value is “inhibited”.
With `C[C@H](CCC(=O)O)[C@H]1CC[C@H]2[C@@H]3[C@@H](O)C[C@@H]4C[C@H](O)CC[C@]4(C)[C@H]3CC[C@]12C` [UDCA, Ursodeoxycholic acid], the “liver histopathology (H&E)” value in data set [2] was “hepatocyte hydropic degeneration with less neutrophil infiltration and a milder degree of bile duct epithelial damage”. In addition, the “Oct1 expression level in rat liver” value in the data set with OCT1 (setting [3]) came out at 2.22±0.59 fmol/μg protein. Further, in the data set on OCT1 (UDCA-treated cholestatic rats, liver, as compared with the control group, p < 0.05), the “OCT1 level, fold higher” value is listed as 2.1 fold. For the same compound, the “Oatp1a4 expression level in rat liver” value with OATP1A4 (setting [3]) was found to be 0.49±0.11 fmol/μg protein. Besides, in the data set with OATP1A4 (UDCA-treated cholestatic rats, liver, not statistically significant), the “OATP1A4 expression upregulated, fold” value is given as 1.3 fold.

These data come from article PMC5962729 (Frontiers in Pharmacology, 2018).
